Source: patent US10017506B2, “ATX modulating agents” (BIOGEN MA INC., priority 2012, dated 2018)

Target: T1, Human ATX protein (Homo sapiens, UniProt Q13822)
T1 construct: made in house
Experiment: ATX biochemical FRET assay with FS-3 substrate
Conditions: FRET substrate FS-3 2 μM, ATX 1.0 μg/mL, 30 minutes pre-incubation, 2 hours at room temperature; read-out: IC50
Outline: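 Enzyme at 1.0 μg/mL final, pre-incubated with compound (10-point, 3-fold series) for 30 min at RT in Tris pH 7.4 buffer with NaCl, KCl, CaCl2, MgCl2 and 1 mg/mL fatty-acid-free BSA. After FS-3 addition, 2 h at RT protected from light; fluorescence at 485/538 nm.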

| Compound | IC50 [nM] |
| --- | --- |
| CCC(NC1CC(C(=O)O)C1(C)C)c1ccc2ccc(O[C@H]3CC[C@@H](C)CC3)c(C(F)(F)F)c2c1 (stereo partly drawn) [Example 105, 2,2-dimethyl-3-((1-(7-((cis-4-methylcyclohexyl)oxy)-8-(trifluoromethyl)naphthalen-2-yl)propyl)amino)cyclobutanecarboxylic acid] | ≤ 100 |
| CC(C)[C@H]1CC[C@@H](Oc2ccc3ccc(CN4CCC(C(=O)O)CC4)cc3c2C(F)(F)F)CC1 [Example 106, 1-((7-((cis-4-isopropylcyclohexyl)oxy)-8-(trifluoromethyl)naphthalen-2-yl)methyl)piperidine-4-carboxylic acid] | ≤ 500 |
| CC(N[C@H]1C[C@@H](C(=O)O)C1)c1ccc2ccc(O[C@H]3CC[C@@H](C)CC3)c(C(F)(F)F)c2c1 (stereo partly drawn) [Example 110, cis-3-((1-(7-((cis-4-methylcyclohexyl)oxy)-8-(trifluoromethyl)naphthalen-2-yl)ethyl)amino)cyclobutanecarboxylic acid] | ≤ 500 |
| CC(N[C@@H]1C[C@H](C(=O)O)C1(C)C)c1ccc2ccc(O[C@H]3CC[C@@H](C)CC3)c(C(F)(F)F)c2c1 (stereo partly drawn) [Example 112, (1S,3R)-2,2-dimethyl-3-((1-(7-((cis-4-methylcyclohexyl)oxy)-8-(trifluoromethyl)naphthalen-2-yl)ethyl)amino)cyclobutanecarboxylic acid] | ≤ 100 |
| CC(N[C@H]1C[C@@H](C(=O)O)C1(C)C)c1ccc2ccc(O[C@H]3CC[C@@H](C)CC3)c(C(F)(F)F)c2c1 (stereo partly drawn) [Example 113, (1R,3S)-2,2-dimethyl-3-((1-(7-((cis-4-methylcyclohexyl)oxy)-8-(trifluoromethyl)naphthalen-2-yl)ethyl)amino)cyclobutanecarboxylic acid] | ≤ 100 |
| CC[C@H]1CC[C@@H](Oc2ccc3ccc(C(C)N[C@@H]4C[C@H](C(=O)O)C4(C)C)cc3c2C(F)(F)F)CC1 (stereo partly drawn) [Example 115, (1S,3R)-3-((1-(7-((cis-4-ethylcyclohexyl)oxy)-8-(trifluoromethyl)naphthalen-2-yl)ethyl)amino)-2,2-dimethylcyclobutanecarboxylic acid] | ≤ 100 |
| CC[C@H]1CC[C@@H](Oc2ccc3ccc(C(C)N[C@H]4C[C@@H](C(=O)O)C4(C)C)cc3c2C(F)(F)F)CC1 (stereo partly drawn) [Example 116] | ≤ 100 |
| CC(N[C@@H]1C[C@H](C(=O)O)C1(C)C)c1ccc2ccc(O[C@H]3CC[C@@H](C(F)(F)F)CC3)c(C(F)(F)F)c2c1 (stereo partly drawn) [Example 119, (1S,3R)-2,2-dimethyl-3-((1-(8-(trifluoromethyl)-7-((cis-4-(trifluoromethyl)cyclohexyl)oxy)naphthalen-2-yl)ethyl)amino)cyclobutanecarboxylic acid] | ≤ 100 |
| CC(N[C@H]1C[C@@H](C(=O)O)C1(C)C)c1ccc2ccc(O[C@H]3CC[C@@H](C(F)(F)F)CC3)c(C(F)(F)F)c2c1 (stereo partly drawn) [Example 120, (1R,3S)-2,2-dimethyl-3-((1-(8-(trifluoromethyl)-7-((cis-4-(trifluoromethyl)cyclohexyl)oxy)naphthalen-2-yl)ethyl)amino)cyclobutanecarboxylic acid] | ≤ 100 |
| O=C(O)C1CCCN(Cc2ccc3ccc(O[C@H]4CC[C@@H](C(F)(F)F)CC4)c(C(F)(F)F)c3c2)CC1 (stereo partly drawn) [Example 123, 1-((8-(trifluoromethyl)-7-((cis-4-(trifluoromethyl)cyclohexyl)oxy)naphthalen-2-yl)methyl)azepane-4-carboxylic acid] | ≤ 250 |
| O=C(O)[C@H]1CC[C@@H](NCc2ccc3ccc(O[C@H]4CC[C@@H](C(F)(F)F)CC4)c(C(F)(F)F)c3c2)CC1 [Example 124, cis-4-(((8-(trifluoromethyl)-7-((cis-4-(trifluoromethyl)cyclohexyl)oxy)naphthalen-2-yl)methyl)amino)cyclohexanecarboxylic acid] | ≤ 250 |
| O=C(O)[C@H]1CC[C@H](NCc2ccc3ccc(O[C@H]4CC[C@@H](C(F)(F)F)CC4)c(C(F)(F)F)c3c2)CC1 [Example 125, trans-4-(((8-(trifluoromethyl)-7-((cis-4-(trifluoromethyl)cyclohexyl)oxy)naphthalen-2-yl)methyl)amino)cyclohexanecarboxylic acid] | ≤ 500 |

Now from value to molecule:

| IC50 [nM] | Compound |
| --- | --- |
| ≤ 100 | C[C@H](N[C@H]1C[C@@H](C(=O)O)C1(C)C)c1ccc2ccc(O[C@H]3CC[C@@H](C)CC3)c(C(F)(F)F)c2c1 [Example 114b, (1R,3S)-2,2-dimethyl-3-(((S)-1-(7-((cis-4-methylcyclohexyl)oxy)-8-(trifluoromethyl)naphthalen-2-yl)ethyl)amino)cyclobutanecarboxylic acid] |
| ≤ 100 | C[C@@H](N[C@H]1C[C@H](C(=O)O)C1(C)C)c1ccc2ccc(O[C@H]3CC[C@@H](C)CC3)c(C(F)(F)F)c2c1 [Example 114c, (1S,3S)-2,2-dimethyl-3-(((R)-1-(7-((cis-4-methylcyclohexyl)oxy)-8-(trifluoromethyl)naphthalen-2-yl)ethyl)amino)cyclobutanecarboxylic acid] |
| ≤ 500 | C[C@@H](N[C@H]1C[C@@H](C(=O)O)C1(C)C)c1ccc2ccc(O[C@H]3CC[C@@H](C)CC3)c(C(F)(F)F)c2c1 [Example 114d, (1R,3S)-2,2-dimethyl-3-(((R)-1-(7-((cis-4-methylcyclohexyl)oxy)-8-(trifluoromethyl)naphthalen-2-yl)ethyl)amino)cyclobutanecarboxylic acid] |
| ≤ 100 | CC[C@H]1CC[C@@H](Oc2ccc3ccc([C@H](C)N[C@@H]4C[C@H](C(=O)O)C4(C)C)cc3c2C(F)(F)F)CC1 [Example 117b, (1S,3R)-3-(((S)-1-(7-((cis-4-ethylcyclohexyl)oxy)-8-(trifluoromethyl)naphthalen-2-yl)ethyl)amino)-2,2-dimethylcyclobutanecarboxylic acid] |
| ≤ 100 | CC[C@H]1CC[C@@H](Oc2ccc3ccc([C@@H](C)N[C@@H]4C[C@@H](C(=O)O)C4(C)C)cc3c2C(F)(F)F)CC1 [Example 117c, (1R,3R)-3-(((R)-1-(7-((cis-4-ethylcyclohexyl)oxy)-8-(trifluoromethyl)naphthalen-2-yl)ethyl)amino)-2,2-dimethylcyclobutanecarboxylic acid] |
| ≤ 500 | CC[C@H]1CC[C@@H](Oc2ccc3ccc([C@H](C)N[C@H]4C[C@H](C(=O)O)C4(C)C)cc3c2C(F)(F)F)CC1 [Example 118a, (1S,3S)-3-(((S)-1-(7-((cis-4-ethylcyclohexyl)oxy)-8-(trifluoromethyl)naphthalen-2-yl)ethyl)amino)-2,2-dimethylcyclobutanecarboxylic acid] |
| ≤ 100 | CC[C@H]1CC[C@@H](Oc2ccc3ccc([C@H](C)N[C@H]4C[C@@H](C(=O)O)C4(C)C)cc3c2C(F)(F)F)CC1 [Example 118b, (1R,3S)-3-(((S)-1-(7-((cis-4-ethylcyclohexyl)oxy)-8-(trifluoromethyl)naphthalen-2-yl)ethyl)amino)-2,2-dimethylcyclobutanecarboxylic acid] |
| ≤ 250 | CC[C@H]1CC[C@@H](Oc2ccc3ccc([C@@H](C)N[C@H]4C[C@H](C(=O)O)C4(C)C)cc3c2C(F)(F)F)CC1 [Example 118c, (1S,3S)-3-(((R)-1-(7-((cis-4-ethylcyclohexyl)oxy)-8-(trifluoromethyl)naphthalen-2-yl)ethyl)amino)-2,2-dimethylcyclobutanecarboxylic acid] |
| ≤ 500 | CC[C@H]1CC[C@@H](Oc2ccc3ccc([C@@H](C)N[C@H]4C[C@@H](C(=O)O)C4(C)C)cc3c2C(F)(F)F)CC1 [Example 118d, (1R,3S)-3-(((R)-1-(7-((cis-4-ethylcyclohexyl)oxy)-8-(trifluoromethyl)naphthalen-2-yl)ethyl)amino)-2,2-dimethylcyclobutanecarboxylic acid] |
| ≤ 100 | C[C@H](N[C@@H]1C[C@H](C(=O)O)C1(C)C)c1ccc2ccc(O[C@H]3CC[C@@H](C(F)(F)F)CC3)c(C(F)(F)F)c2c1 [Example 121b, (1S,3R)-2,2-dimethyl-3-(((S)-1-(8-(trifluoromethyl)-7-((cis-4-(trifluoromethyl)cyclohexyl)oxy)naphthalen-2-yl)ethyl)amino)cyclobutanecarboxylic acid] |

Same assay, conditions: IC50, FRET substrate FS-3 2 μM, ATX 1.0 μg/mL, 30 minutes pre-incubation, 2 hours at room temperature

| Compound | IC50 [nM] |
| --- | --- |
| CC(c1ccc2ccc(O[C@H]3CC[C@@H](C)CC3)c(C#N)c2c1)N1C2CCC1CC(C(=O)O)C2 (stereo partly drawn) [Example 101, 8-(1-(8-cyano-7-((cis-4-methylcyclohexyl)oxy)naphthalen-2-yl)ethyl)-8-azabicyclo[3.2.1]octane-3-carboxylic acid] | ≤ 100 |
| CC(c1ccc2ccc(O[C@H]3CC[C@@H](C)CC3)c(C#N)c2c1)N1C2CCCC1CC(C(=O)O)C2 (stereo partly drawn) [Example 102, 9-(1-(8-cyano-7-((cis-4-methylcyclohexyl)oxy)naphthalen-2-yl)ethyl)-9-azabicyclo[3.3.1]nonane-3-carboxylic acid] | ≤ 100 |
| CCC(c1ccc2ccc(O[C@H]3CC[C@@H](C)CC3)c(C(F)(F)F)c2c1)N1C2CCCC1CC(C(=O)O)C2 (stereo partly drawn) [Example 104, 9-(1-(7-((cis-4-methylcyclohexyl)oxy)-8-(trifluoromethyl)naphthalen-2-yl)propyl)-9-azabicyclo[3.3.1]nonane-3-carboxylic acid] | ≤ 250 |
| CC(C)[C@H]1CC[C@@H](Oc2ccc3ccc(CN4C5CCC4CC(C(=O)O)C5)cc3c2C(F)(F)F)CC1 (stereo partly drawn) [Example 107, 8-((7-((cis-4-isopropylcyclohexyl)oxy)-8-(trifluoromethyl)naphthalen-2-yl)methyl)-8-azabicyclo[3.2.1]octane-3-carboxylic acid] | ≤ 100 |
| CC(C)[C@H]1CC[C@@H](Oc2ccc3ccc(CN4C5CCCC4CC(C(=O)O)C5)cc3c2C(F)(F)F)CC1 (stereo partly drawn) [Example 108, 9-((7-((cis-4-isopropylcyclohexyl)oxy)-8-(trifluoromethyl)naphthalen-2-yl)methyl)-9-azabicyclo[3.3.1]nonane-3-carboxylic acid] | ≤ 100 |
